Experimental findings from patent US10696692B2, “Amido-benzyl sulfone and sulfoxide derivates” (Forma TM, LLC, priority 2012, dated 2020) are described below.

Read-outs that look alike come from different tables or passages of the source.

In one experiment the target is NAMPT (Homo sapiens (Human), UniProt P43490). Kind of experiment: Assay 1: Biochemical Inhibition Assay (NAMPT enzymatic reaction, NMN quantified by mass spectrometry).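 Note: recombinant His-tagged human NAMPT preincubated with compound 15 min, then reacted 30 min at rt with 1 µM NAM, 100 µM PRPP, 2.5 mM ATP, NMN product read by RapidFire MS, normalized to L-Cystathionine internal standard.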 To be noted: read-out: Biochemical (IC50).
A further experiment deals with A2780 cells. Description: Assay 2: In-Vitro Cell Proliferation Assay (A2780 cells, SRB readout, 72 hours).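 Note: viable cells counted via sulforhodamine B staining, absorbance at 570 nm, after 72 h exposure at 37 °C, DMSO 0.1% as control, media-only background subtracted.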 To be noted: A2780 cells, 72 hours, SRB, read-out: Cell Proliferation (IC50). In kind it is cell-based.

Chain of NAMPT (P43490 whole entry): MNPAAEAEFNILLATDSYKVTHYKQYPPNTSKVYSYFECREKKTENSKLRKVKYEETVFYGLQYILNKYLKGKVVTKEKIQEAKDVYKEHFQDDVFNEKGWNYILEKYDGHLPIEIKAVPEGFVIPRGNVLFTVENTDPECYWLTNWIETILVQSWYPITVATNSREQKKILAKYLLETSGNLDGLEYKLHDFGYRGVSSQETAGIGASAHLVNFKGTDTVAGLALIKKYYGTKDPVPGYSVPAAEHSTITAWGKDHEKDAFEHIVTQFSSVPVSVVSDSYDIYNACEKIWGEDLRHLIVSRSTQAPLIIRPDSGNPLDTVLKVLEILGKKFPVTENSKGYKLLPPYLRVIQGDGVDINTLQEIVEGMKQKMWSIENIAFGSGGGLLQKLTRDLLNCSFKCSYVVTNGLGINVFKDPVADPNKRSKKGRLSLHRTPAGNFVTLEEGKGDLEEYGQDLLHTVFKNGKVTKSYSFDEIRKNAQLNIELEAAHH

In the case of `O=C(NCc1ccc(S(=O)(=O)N2CC3CCOC3C2)cc1)c1cc2ccncc2o1` (stereo not shown) [Example 302, N-[[4-(2,3,3a,4,6,6a-hexahydrofuro[2,3-c]pyrrol-5-ylsulfonyl)phenyl]methyl]furo [2,3-c]pyridine-2-carboxamide], the IC50 was 41.8 nM on NAMPT and 27.1 nM in the experiment on A2780 cells (Homo sapiens, A2780, 72 h).

For the compound `O=C(NCc1ccc(S(=O)(=O)C2CCCOC2)cc1)c1cnc2[nH]ncc2c1` (racemic) [Example 155, 1H-Pyrazolo[3,4-b]pyridine-5-carboxylic acid 4-(tetrahydro-pyran-3-sulfonyl)-benzylamide], the IC50 at NAMPT worked out at 219 nM; in the experiment on A2780 cells (Homo sapiens, A2780, 72 h), 176 nM. For the compound `CN(C)C(=O)C1CN(S(=O)(=O)c2ccc(CNC(=O)c3ccc4nccn4c3)cc2)C1` [Example 244, N-[[4-[3-(dimethylcarbamoyl)azetidin-1-yl]sulfonylphenyl]methyl] imidazo[1,2-a]pyridine-6-carboxamide], the IC50 on NAMPT was 14.1 nM; with A2780 cells (Homo sapiens, A2780, 72 h), 14.4 nM. On the same counts, the results for `O=C(NCc1ccc(S(=O)(=O)C2CCN(C(=O)c3ccccc3)CC2)cc1)c1cnc2[nH]ncc2c1` [Example 344, N-[[4-[(1-benzoyl-4-piperidyl)sulfonyl]phenyl]methyl]-1H-pyrazolo[3,4-b]pyridine-5-carboxamide] are 302 nM and 451 nM. Take “1H-Pyrazolo[3,4- b]pyridine-5-carboxylic acid 4-(4-hydroxymethyl- piperidine-1-sulfonyl)- benzylamide [Example 174]”: the IC50 is 152 nM on NAMPT and 84.4 nM with A2780 cells. For `O=C(NCc1ccc(S(=O)(=O)N2CCC[C@H]2CO)cc1)c1ccc2nccn2c1` [Example 107, Imidazo[1,2-a]pyridine-6-carboxylic acid 4-((S)-2-hydroxymethyl-pyrrolidine-1-sulfonyl)-benzylamide], the IC50 at NAMPT was 23.7 nM; in the experiment with A2780 cells (Homo sapiens, A2780, 72 h), 15.4 nM. For the compound `N#CC1CCN(S(=O)(=O)c2ccc(CNC(=O)c3ccc4nccn4c3)cc2)CC1` [Example 95, Imidazo[1,2-a]pyridine-6-carboxylic acid 4-(4-cyano-piperidine-1-sulfonyl)-benzylamide], the IC50 at NAMPT came out at 41 nM; with A2780 cells (Homo sapiens, A2780, 72 h), 33.5 nM. On the same counts, the results for `O=C(NCc1ccc(S(=O)(=O)N2CC3CNCC3C2)cc1)c1ccc2nccn2c1` (stereo not shown) [Example 329, N-[[4-(2,3,3a,4,6,6a-hexahydro-1H-pyrrolo[3,4-c]pyrrol-5-yIsulfonyl)phenyl]methyl] imidazo[1,2-a]pyridine-6-carboxamide] are 79.3 nM and 93.3 nM. On the same counts, the results for `O=C(NCc1ccc([S+]([O-])C2CCN(CC(F)(F)F)CC2)cc1)c1cnc2[nH]ncc2c1` (stereo not shown) [Example 367, N-[[4-[[1-(2,2,2-trifluoroethyl)-4-piperidyl)sulfinyl]phenyl]methyl]-1H-pyrazolo[3,4-b]pyridine-5-carboxamide] are 88.1 nM and 15 nM.

On to `O=C(NCc1ccc(S(=O)(=O)N2CCC3(CCNCC3)CC2)cc1)c1ccc2nccn2c1` [Example 324, N-[[4-(3,9-diazaspiro[5.5]undecan-3-ylsulfonyl)phenyl]methyl] imidazo[1,2-a]pyridine-6-carboxamide], for which the IC50 amounted to 19.2 nM at NAMPT and 24.8 nM with A2780 cells (Homo sapiens, A2780, 72 h).

On to `O=C(NCc1ccc(S(=O)(=O)N2CC3COCC3C2)cc1)c1cc2ccncc2o1` (stereo not shown) [Example 153, Furo[2,3-c]pyridine-2-carboxylic acid 4-(tetrahydro-furo[3,4-c]pyrrole-5-sulfonyl)-benzylamide], for which the IC50 turned out to be 16.5 nM on NAMPT and 48.9 nM in the experiment with A2780 cells (Homo sapiens, A2780, 72 h). The matching figures for `O=C(NCc1ccc(S(=O)(=O)[C@H]2CCOC2)cc1)c1ccc2nccn2c1` [Example 223, N-[[4-[(3S)-tetrahydrofuran-3-yl]sulfonylphenyl]methyl] imidazo[1,2-a]pyridine-6-carboxamide]: 64.2 nM and 105 nM.

In the case of `CCC(=O)N1CCC(S(=O)(=O)c2ccc(CNC(=O)c3cc4ccncc4o3)cc2)CC1` [Example 312, N-[[4-[(1-propanoyl-4-piperidyl)sulfonyl]phenyl]methyl]furo[2,3-c]pyridine-2-carboxamide], the IC50 at NAMPT was 113 nM; in the experiment with A2780 cells (Homo sapiens, A2780, 72 h), 48.9 nM. In the case of `CC(C)(C)OC(=O)N1CCC2(CC1)CCN(S(=O)(=O)c1ccc(CNC(=O)c3ccc4nccn4c3)cc1)CC2` [Example 121, 9-(4-{[(Imidazo[1,2-a]pyridine-6-carbonyl)-amino]-methyl}-benzenesulfonyl)-3,9-diaza-spiro[5.5]undecane-3-carboxylic acid tert-butyl ester], the IC50 at NAMPT stood at 5.8 nM; with A2780 cells (Homo sapiens, A2780, 72 h), 1.1 nM. Take `CCN1CCC([S+]([O-])c2ccc(CNC(=O)c3cnc4[nH]ncc4c3)cc2)CC1` (stereo not shown) [Example 373, N-[[4-[(1-ethyl-4-piperidyl)sulfinyl]phenyl]methyl]-1H-pyrazolo[3,4-b]pyridine-5-carboxamide]: the IC50 is 113 nM at NAMPT and 15.4 nM in the experiment on A2780 cells (Homo sapiens, A2780, 72 h). The matching figures for `O=C(NCc1ccc(S(=O)(=O)N2C[C@@H]3CC(F)(F)[C@@H]3C2)cc1)c1ccc2nccn2c1` (racemic) [Example 147, cis-Imidazo[1,2-a]pyridine-6-carboxylic acid 4-(6,6-difluoro-3-aza-bicyclo[3.2.0]heptane-3-sulfonyl)-benzylamide]: 13.7 nM and 12.5 nM. As to `CC(C)(C)OC(=O)N1CCCC2(CCN(S(=O)(=O)c3ccc(CNC(=O)c4ccc5nccn5c4)cc3)CC2)C1` [Example 122, 9-(4-{[(Imidazo[1,2-a]pyridine-6-carbonyl)-amino]-methyl}-benzenesulfonyl)-2,9-diaza-spiro[5.5]undecane-2-carboxylic acid tert-butyl ester], the IC50 on NAMPT is 25.5 nM; in the experiment with A2780 cells (Homo sapiens, A2780, 72 h), 2.6 nM. The matching figures for `O=C(NCc1ccc(S(=O)(=O)N2CCC(O)CC2)cc1)c1cnc2nccn2c1` [Example 29, Imidazo[1,2-a]pyrimidine-6-carboxylic acid 4-(4-hydroxy-piperidine-1-sulfonyl)-benzylamide]: 7.5 nM and 545 nM. `O=C(NCc1ccc(S(=O)(=O)N2CCN(C3COC3)CC2)cc1)c1cnc2nccn2c1` [Example 119, Imidazo[1,2-a]pyrimidine-6-carboxylic acid 4-(4-oxetan-3-yl-piperazine-1-sulfonyl)-benzylamide]: the IC50 at NAMPT was found to be 4.4 nM; in the experiment on A2780 cells (Homo sapiens, A2780, 72 h), 352 nM. Turning to `O=C(NCc1ccc(S(=O)(=O)N2C[C@@H]3C[C@H]2CO3)cc1)c1ccc2nccn2c1` [Example 84, Imidazo[1,2-a]pyridine-6-carboxylic acid 4-[(1S,4S)-(2-oxa-5-aza-bicyclo[2.2.1]hept-5-yl)sulfonyl]-benzylamide], the IC50 worked out at 37.4 nM on NAMPT and 16.6 nM in the experiment with A2780 cells (Homo sapiens, A2780, 72 h).

For `COCCN1CCN(S(=O)(=O)c2ccc(CNC(=O)c3cnc4[nH]ncc4c3)cc2)CC1` [Example 173, 1H-Pyrazolo[3,4-b]pyridine-5-carboxylic acid 4-[4-(2-methoxy-ethyl)-piperazine-1-sulfonyl]-benzylamide], the IC50 at NAMPT is 183 nM; in the experiment on A2780 cells (Homo sapiens, A2780, 72 h), 86.2 nM. Turning to `CN1C[C@H]2C[C@@H](C1)N(S(=O)(=O)c1ccc(CNC(=O)c3ccc4nccn4c3)cc1)C2` (racemic) [Example 165, cis-Imidazo[1,2-a]pyridine-6-carboxylic acid 4-(3-methyl-3,6-diaza-bicyclo[3.2.1]octane-6-sulfonyl)-benzylamide], the IC50 on NAMPT came out at 95.8 nM; in the experiment with A2780 cells (Homo sapiens, A2780, 72 h), 22 nM. In the case of `O=C(NCc1ccc(S(=O)(=O)[C@H]2CCOC2)cc1)c1cnc2nccn2c1` [Example 76, Imidazo[1,2-a]pyrimidine-6-carboxylic acid 4-[(S)-(tetrahydro-furan-3-yl)sulfonyl]-benzylamide], the IC50 at NAMPT stood at 9.8 nM; with A2780 cells, 423 nM. With `O=C(NCc1ccc(S(=O)(=O)N2CCC(CO)CC2)cc1)c1ccc2nccn2c1` [Example 96, Imidazo[1,2-a]pyridine-6-carboxylic acid 4-(4-hydroxymethyl-piperidine-1-sulfonyl)-benzylamide], the IC50 at NAMPT amounted to 24.7 nM; in the experiment with A2780 cells (Homo sapiens, A2780, 72 h), 9.4 nM. On the same counts, the results for `CC(C)(C)OC(=O)N1CCC2(CCCN2S(=O)(=O)c2ccc(CNC(=O)c3ccc4nccn4c3)cc2)C1` (stereo not shown) [Example 237, tert-butyl 1-[4-[(imidazo[1,2-a]pyridine-6-carbonylamino)methyl]phenyl] sulfonyl-1,7-diazaspiro[4.4]nonane-7-carboxylate] are 109 nM and 38.8 nM. Regarding `O=C(NCc1ccc(S(=O)(=O)N2CCC(N3CCCC3)CC2)cc1)c1cnc2[nH]ncc2c1` [Example 156, 1 H-Pyrazolo[3,4-b]pyridine-5-carboxylic acid 4-(4-pyrrolidin-1-yl-piperidine-1-sulfonyl)-benzylamide], in the experiment with A2780 cells (Homo sapiens, A2780, 72 h), the IC50 turned out to be 35.1 nM.

Take `CC(C)N1CCN(S(=O)(=O)c2ccc(CNC(=O)c3ccc4nccn4c3)cc2)CC1` [Example 18, Imidazo[1,2-a]pyridine-6-carboxylic acid 4-(4-isopropyl-piperazine-1-sulfonyl)-benzylamide]: in the experiment with A2780 cells (Homo sapiens, A2780, 72 h), the IC50 came to 12.9 nM.

For `O=C(NCc1ccc(S(=O)(=O)N2CCCCC2)cc1)c1cnc2cn[nH]c2c1` [Example 49, 1H-Pyrazolo[4,3-b]pyridine-6-carboxylic acid 4-(piperidine-1-sulfonyl)-benzylamide], the IC50 on NAMPT is 2000 nM. With `CCN1CCC([S+]([O-])c2ccc(CNC(=O)c3ccc4nccn4c3)cc2)CC1` (stereo not shown) [Example 370, N-[[4-[(1-ethyl-4-piperidyl)sulfinyl]phenyl]methyl]imidazo[1,2-a]pyridine-6-carboxamide], in the experiment on A2780 cells (Homo sapiens, A2780, 72 h), the IC50 stood at 13.4 nM. As for `O=C(NCc1ccc(S(=O)(=O)N2CC3COCC3C2)cc1)c1cnc2[nH]ncc2c1` (stereo not shown) [Example 158, 1H-Pyrazolo[3,4-b]pyridine-5-carboxylic acid 4-(tetrahydro-furo[3,4-c]pyrrole-5-sulfonyl)-benzylamide], in the experiment on A2780 cells (Homo sapiens, A2780, 72 h), the IC50 is 182 nM.
